The source of these data is patent publication US20250230226A1, “PLXDC1/PLXDC2 ACTIVATORS AND THEIR USE IN THE TREATMENT OF BLOOD VESSEL DISORDERS” (THE REGENTS OF THE UNIVERSITY OF CALIFORNIA, priority 2019, published 2025).

For this test, the system named is LL/2 lung cancer tumor endothelial cells. Briefly: Lung LL2 ex vivo model of tumor angiogenesis. The note with it: for 48 hrs (morphology observations): LL/2 tumor endothelial cells; for Cell death: drug treatment for two days, ratio of red area to total endothelial cell area. The format is cell-based, mouse. The essentials: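 LL2 mouse tumor fragments (~0.075 mm³) embedded in Matrigel and cultured in endothelial growth medium at 37 °C until endothelial outgrowth (~4 days) before treatment. Cell death assessed e.g. 48 h after drug by fluorescein diacetate (live)/propidium iodide (dead) staining and red/green fluorescence imaging.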

The mark [1] stands for this setting: Mus musculus, Endothelial cell, 48 h, read-out: Cell death.

Regarding `CCCCCCCCCCOc1ccc(S(=O)(=O)c2cnc3ccc([S+](C)[O-])cc3c2N2CCC(N3CCC(N4CCCCC4)CC3)CC2)cc1F` (stereo not drawn) [Compound 290], the “48 hrs (morphology observations)” value (10 μm) was “*** (more than 50% but less than 100% of endothelial cells vesicularize in cell shape)”. In addition, the cytotoxicity at 10 µM under setting [1] was determined as 50%.

As for `CCCCCCCCCCOc1ccc(S(=O)(=O)c2cnc3ccc([S+](C)[O-])cc3c2N2CCC(N3CCN(CCO)CC3)CC2)cc1F` (stereo not drawn) [Compound 291], under “20 μm”, the “Cell death, read at 24 hrs” value was found to be 10% and the “Endothelial cell morphology score at 24 hrs” value was “* (50% or less of cells vesicularize in cell shape)”.

Take `CCCCCCCCCCOc1ccc(S(=O)(=O)c2cnc3ccc([S+](C)[O-])cc3c2N2CCC(N3CCC(N4CCN(CCO)CC4)CC3)CC2)cc1` (stereo not drawn) [Compound 292]: under “20 μm”, the “Cell death, read at 24 hrs” value turned out to be 10% and the “Endothelial cell morphology score at 24 hrs” value is listed as “* (50% or less of cells vesicularize in cell shape)”.

As for `CCN(c1c(S(=O)(=O)c2ccc(OC)cc2)cnc2cc(OC)c(OC)cc12)C(C)C` [Compound 294], for the setting “40 μm”, the “48 hrs (morphology observations)” value is on record as “* (50% or less of cells vesicularize in cell shape)” and the Cell death came out at 50%.

With `CCN(CC)CCN(CC)c1c(S(=O)(=O)c2ccc(OC)cc2)cnc2cc(OC)c(OC)cc12` [Compound 296], where the note is “40 μm”, the “48 hrs (morphology observations)” value is reported as 0 and the Cell death is given as 20%.

With `CCN(CC)CCC(C)Nc1c(S(=O)(=O)c2ccc(OC)cc2)cnc2cc(OC)c(OC)cc12` (stereo not drawn) [Compound 300], where the note is “40 μm”, the “48 hrs (morphology observations)” value was determined as 0 and the Cell death is 20%.

Consider `CCN(CC)CCCN1CCN(c2c(S(=O)(=O)c3ccc(OC)cc3)cnc3cc(OC)c(OC)cc23)CC1` [Compound 302], for which, for the setting “40 μm”, the “48 hrs (morphology observations)” value is 0 and the Cell death was found to be 70%.

Regarding `COc1ccc(S(=O)(=O)c2cnc3cc(OC)c(OC)cc3c2N2C[C@@H]3C[C@H]2CN3C)cc1` [Compound 306], under “40 μm”, the “48 hrs (morphology observations)” value came out at 0. For the same compound, under setting [1], the cytotoxicity at 40 µM was 40%.

On to `COc1ccc(S(=O)(=O)c2cnc3cc(OC)c(OC)cc3c2N2CCC(O)(c3ccccc3)CC2)cc1` [Compound 308], for which, under “40 μm”, the “48 hrs (morphology observations)” value was 0 and the Cell death was found to be 20%.

Regarding `CNC(=O)c1ccc(C2CCN(c3c(S(=O)(=O)c4ccc(OC)cc4)cnc4cc(OC)c(OC)cc34)CC2)cc1` [Compound 310], under “40 μm”, the “48 hrs (morphology observations)” value turned out to be 0 and the Cell death amounted to 10%.

With `COc1ccc(C2CCN(c3c(S(=O)(=O)c4ccc(OC)cc4)cnc4cc(OC)c(OC)cc34)CC2)cc1` [Compound 311], for the setting “40 μm”, the “48 hrs (morphology observations)” value was 0 and the Cell death is on record as 30%.

Consider `COc1ccc(S(=O)(=O)c2cnc3cc(OC)c(OC)cc3c2N2CCC(c3ccc(CN4CCCC4)cc3)CC2)cc1` [Compound 312], for which, for the setting “40 μm”, the “48 hrs (morphology observations)” value was “**** (100% of endothelial cells vesicularize in cell shape and look flattened in morphology (indicating disintegration of the cell body))”; the Cell death amounted to 100%.

Consider `CCOC(=O)c1ccc(N2CCN(c3c(S(=O)(=O)c4ccc(OC)cc4)cnc4cc(OC)c(OC)cc34)CC2)cc1` [Compound 317], for which, under “40 μm”, the “48 hrs (morphology observations)” value came to 0 and the Cell death is 30%.

In the case of `COc1ccc(N2CCN(c3c(S(=O)(=O)c4ccc(OC)cc4)cnc4cc(OC)c(OC)cc34)CC2=O)cc1` [Compound 318], for the setting “40 μm”, the “48 hrs (morphology observations)” value is on record as 0 and the Cell death stood at 30%.

`COc1ccc(S(=O)(=O)c2cnc3cc(OC)c(OC)cc3c2N2CCC(N3CCCCC3)CC2)cc1` [Compound 320]: under “40 μm”, the “48 hrs (morphology observations)” value is reported as 0 and the Cell death was 30%.

`COc1ccc(S(=O)(=O)c2cnc3cc(OC)c(OC)cc3c2N2CCC(N3CCCC3=O)CC2)cc1` [Compound 321]: where the note is “40 μm”, the “48 hrs (morphology observations)” value came to 0 and the Cell death came out at 40%.

For `COc1ccc(S(=O)(=O)c2cnc3cc(OC)c(OC)cc3c2N2CCC(N3CCCC3CO)CC2)cc1` (stereo not drawn) [Compound 322], where the note is “40 μm”, the “48 hrs (morphology observations)” value is recorded as 0 and the Cell death turned out to be 30%.

On to `COc1ccc(S(=O)(=O)c2cnc3cc(OC)c(OC)cc3c2N2CCCN(CCO)CC2)cc1` [Compound 323], for which, under “40 μm”, the “48 hrs (morphology observations)” value is given as 0 and the Cell death was found to be 30%.

Turning to `COc1ccc(S(=O)(=O)c2cnc3cc(OC)c(OC)cc3c2N2CCC3C(COCCN3CC(C)C)C2)cc1` (stereo not drawn) [Compound 324], where the note is “40 μm”, the “48 hrs (morphology observations)” value was 0 and the Cell death came to 60%.

Turning to `COc1ccc(S(=O)(=O)c2cnc3cc(OC)c(OC)cc3c2N2CCCN(CC3(O)CCCC3)CC2)cc1` [Compound 325], where the note is “40 μm”, the “48 hrs (morphology observations)” value is listed as “* (50% or less of cells vesicularize in cell shape)” and the Cell death was found to be 30%.

For the compound `COc1ccc(S(=O)(=O)c2cnc3cc(OC)c(OC)cc3c2N2CCCN(C3COC3)CC2)cc1` [Compound 326], where the note is “40 μm”, the “48 hrs (morphology observations)” value was determined as 0 and the Cell death is on record as 30%.

Turning to `COc1ccc(S(=O)(=O)c2cnc3cc(OC)c(OC)cc3c2N2CCCN(c3nc4ccc(Cl)cc4s3)CC2)cc1` [Compound 327], the “48 hrs (morphology observations)” value (40 μm) is 0. Further, the cytotoxicity at 40 µM under setting [1] was determined as 20%.

Take `COc1ccc(S(=O)(=O)c2cnc3cc(OC)c(OC)cc3c2N2CCC(=O)N(C)CC2)cc1` [Compound 328]: where the note is “40 μm”, the “48 hrs (morphology observations)” value was determined as 0 and the Cell death was 30%.

Regarding `COc1ccc(S(=O)(=O)c2cnc3cc(OC)c(OC)cc3c2N2CCCN(C3CCSCC3)CC2)cc1` [Compound 329], where the note is “40 μm”, the “48 hrs (morphology observations)” value is listed as “*** (more than 50% but less than 100% of endothelial cells vesicularize in cell shape)” and the Cell death was 40%.

For `COc1ccc(S(=O)(=O)c2cnc3cc(OC)c(OC)cc3c2N2CCCN(C3CCS(=O)(=O)CC3)CC2)cc1` [Compound 330], under “40 μm”, the “48 hrs (morphology observations)” value is “*** (more than 50% but less than 100% of endothelial cells vesicularize in cell shape)” and the Cell death was found to be 50%.

On to `COc1ccc(S(=O)(=O)c2cnc3ccc(C(=O)N(C)C)cc3c2N2CCC(N3CCCCC3)CC2)cc1` [Compound 331], for which, where the note is “40 μm”, the “48 hrs (morphology observations)” value turned out to be 0 and the Cell death is 10%.

As for `COc1ccc(S(=O)(=O)c2cnc3ccc(C(=O)N(C)C)cc3c2N2CCC(N3CCCC3=O)CC2)cc1` [Compound 332], where the note is “40 μm”, the “48 hrs (morphology observations)” value is listed as 0 and the Cell death came out at 0%.

Regarding `COc1ccc(S(=O)(=O)c2cnc3ccc(C(=O)N(C)C)cc3c2N2CCCN(CC(=O)N(C)C)CC2)cc1` [Compound 333], for the setting “40 μm”, the “48 hrs (morphology observations)” value was found to be 0 and the Cell death is listed as 0%.

For `CNC(=O)c1ccc2ncc(S(=O)(=O)c3ccc(OC)cc3)c(N3CCC(N4CCCC4CO)CC3)c2c1` (stereo not drawn) [Compound 336], for the setting “40 μm”, the “48 hrs (morphology observations)” value came to 0 and the Cell death is recorded as 0%.

On to `CCCCCCCCCCCCCCOc1ccc(S(=O)(=O)c2cnc3ccc([S+](C)[O-])cc3c2N2CCC(N3CCN(CCO)CC3)CC2)cc1` (stereo not drawn) [Compound 339], for which the cytotoxicity at 20 µM under setting [1] was 50%.

With `CCCCCCCCCCCCOc1ccc(S(=O)(=O)c2cnc3ccc([S+](C)[O-])cc3c2N2CCC(N3CCC(N4CCN(CCO)CC4)CC3)CC2)cc1` (stereo not drawn) [Compound 340], where the note is “20 μm”, the “48 hrs (morphology observations)” value is “*** (more than 50% but less than 100% of endothelial cells vesicularize in cell shape)” and the Cell death is 60%.

In the case of `CCCCCCCCCCCCOc1ccc(S(=O)(=O)c2cnc3ccc([S+](C)[O-])cc3c2N2CCC(N3CCC(N4CCN(C)CC4)CC3)CC2)cc1` (stereo not drawn) [Compound 341], for the setting “20 μm”, the “48 hrs (morphology observations)” value is given as “*** (more than 50% but less than 100% of endothelial cells vesicularize in cell shape)” and the Cell death worked out at 80%.

Regarding `CCCCCCCCCCCCOc1ccc(S(=O)(=O)c2cnc3ccc([S+](C)[O-])cc3c2N2CCC(N3CCN(CCO)CC3)CC2)cc1` (stereo not drawn) [Compound 344], under “20 μm”, the “48 hrs (morphology observations)” value was “* (50% or less of cells vesicularize in cell shape)”. The cytotoxicity at 20 µM under setting [1] came out at 10%.

As to `CCCCCCCCCCCCCCOc1ccc(S(=O)(=O)c2cnc3ccc([S+](C)[O-])cc3c2N2CCC(N3CCC(N4CCN(CCO)CC4)CC3)CC2)cc1` (stereo not drawn) [Compound 345], under “20 μm”, the “48 hrs (morphology observations)” value is on record as “*** (more than 50% but less than 100% of endothelial cells vesicularize in cell shape)” and the Cell death came out at 50%.

Turning to `CCCCOc1ccc(S(=O)(=O)c2cnc3ccc(SC)cc3c2N2CCC(N3CCCC3CO)CC2)cc1` (stereo not drawn) [Compound 350], the “48 hrs (morphology observations)” value (40 μm) is 0. In addition, the cytotoxicity at 40 µM under setting [1] is 20%.

For `CCCCOc1ccc(S(=O)(=O)c2cnc3ccc(SC)cc3c2N2CCCN(CCO)CC2)cc1` [Compound 351], the “48 hrs (morphology observations)” value (40 μm) is reported as “*** (more than 50% but less than 100% of endothelial cells vesicularize in cell shape)”. Under setting [1], the cytotoxicity at 40 µM came out at 100%.

Take `CCCCOc1ccc(S(=O)(=O)c2cnc3ccc(SC)cc3c2N2CCC3C(COCCN3CC(C)C)C2)cc1` (stereo not drawn) [Compound 352]: where the note is “40 μm”, the “48 hrs (morphology observations)” value is on record as “*** (more than 50% but less than 100% of endothelial cells vesicularize in cell shape)”. Further, the cytotoxicity at 40 µM under setting [1] came to 100%.

`CCCCOc1ccc(S(=O)(=O)c2cnc3ccc(SC)cc3c2N2CCCN(S(=O)(=O)NCC(F)(F)F)CC2)cc1` [Compound 353]: for the setting “40 μm”, the “48 hrs (morphology observations)” value amounted to 0. Further, the cytotoxicity at 40 µM under setting [1] was determined as 0%.

Regarding `CCCCOc1ccc(S(=O)(=O)c2cnc3ccc(SC)cc3c2N2CCCN(CC3(O)CCCC3)CC2)cc1` [Compound 354], where the note is “40 μm”, the “48 hrs (morphology observations)” value is 0. In addition, under setting [1], the cytotoxicity at 40 µM came out at 0%.

For the compound `CCCCOc1ccc(S(=O)(=O)c2cnc3ccc(SC)cc3c2N2CCCN(C3COC3)CC2)cc1` [Compound 355], the “48 hrs (morphology observations)” value (40 μm) is reported as 0. The cytotoxicity at 40 µM under setting [1] turned out to be 0%.

Take `CCCCOc1ccc(S(=O)(=O)c2cnc3ccc(SC)cc3c2N2CCCN(c3nc4ccc(Cl)cc4s3)CC2)cc1` [Compound 356]: the “48 hrs (morphology observations)” value (40 μm) was 0. Moreover, the cytotoxicity at 40 µM under setting [1] came out at 0%.
